Tests used:
Type in all cases: cell-based, human
[1] = test system: KYSE30; test: Oligonucleotide microarray: genes up-regulated after 5Aza-dC ± TSA treatment; settings: at least 3.0 fold increase
Experimental: (§1) Cells were split to low density (5×10^5 per T-25 flask) 12 to 24 hr before treatment, then treated for 3, 4, or 5 days with 1 μM or 5 μM 5Aza-dC (Sigma) from 100-mM 50% acetic acid dissolved stock or were mock-treated with the same volume of phosphate buffered saline (PBS) including the same acetic acid. Following an initial incubation (48 hr) of 5Aza-dC, a final concentration of 300 nM TSA (Sigma) was added to the media from a 5 mM ethanol dissolved stock, or cells were mock-treated with an identical volume of ethanol.
(§2) Oligonucleotide microarray analysis was performed using the GeneChip™ Human Genome U95Av2 Array (Affymetrix), which contains 12,599 genes, according to the manufacturer's instruction. […] RNA was isolated using TRIZOL reagent (Invitrogen Corp.) and reverse-transcribed total RNA (8 μg) with M-MLV (Invitrogen Corp.); one one-hundredth of the cDNA product was used as a template for PCR. RT-PCR was performed at 24 to 30 cycles: 95° C. for 1 min, 54 or 56° C. for 1 min, and 72° C. for 1 min.
(§3) Treatment of cells with the demethylating agent 5aza-dC (1 μM or 5 μM) for 3 to 5 days, and with or without the histone deacetylase inhibitor, TSA (300 nM; last 24 hours), was used to reactivate genes epigenetically silenced in 3 ESCC cell lines. […] The number of candidate genes was further diminished by comparing expression patterns (see world wide web, at URL “cgap.nci.nih.gov”) in normal esophagus and carcinoma tissue samples (eliminating those genes not expressed in normal tissue), and excluding unknown genes.

[2] = test system: KYSE410; test: as above; settings: at least 3.0 fold increase
Experimental: as §1, §2, §3

[3] = test system: KYSE520; test: as above; settings: at least 3.0 fold increase
Experimental: as §1, §2, §3

[4] = test system: HNSCC #011 cell line; test: Microarray screen for reactivated genes in HNSCC cells; settings: 10 μM 5Aza-dC
Experimental: as §1, §2
HNSCC cells were incubated with 10 μM 5Aza-dC or with 0.1 μM 5Aza-dC and 300 nM TSA and screened as described in Example 1.

[5] = test system: 3 ESCC cell lines; test: Microarray screen, pooled over the 3 ESCC cell lines
Experimental: as §1, §2
Treatment of cells with the demethylating agent 5aza-dC (1 μM or 5 μM) for 3 to 5 days, and with or without the histone deacetylase inhibitor, TSA (300 nM; last 24 hours), was used to reactivate genes epigenetically silenced in 3 ESCC cell lines. […]

With Nc1ncn([C@H]2C[C@H](O)[C@@H](CO)O2)c(=O)n1 [5Aza-dC, 5-aza-2′-deoxycytidine] the “Genes upregulated by microarray analysis after treatments” value (from here on “Genes upregulated”) ([1]; 1 μM 5Aza-dC) was 46 genes, the “Genes upregulated” value ([1]; 5 μM 5Aza-dC) was 242 genes and the “Genes upregulated” value ([2]; 1 μM 5Aza-dC) was 15 genes. For the same compound, the “Genes upregulated” value ([2]; 5 μM 5Aza-dC) was 334 genes, the “Genes upregulated” value ([3]; 1 μM 5Aza-dC) was 5 genes and the “Genes upregulated” value ([3]; 5 μM 5Aza-dC) was 149 genes. The “Reactivation of epigenetically silenced genes” value ([4]; HNSCC cells) was “Reactivation of epigenetically silenced genes was observed”, the “Fold increase in expression: H.sapiens p27 mRNA (X67325)” value ([4]; probe 425_at, HNSCC #011) was 5.8 fold and the “Fold increase in expression: tumor necrosis factor alpha inducible protein” value ([4]; probe 595_at, HNSCC #011) was 3.648 fold. For the same compound, the “Fold increase in expression: von Hippel-Lindau disease tumor suppressor mRNA” value ([4]; probe 1668_s_a, HNSCC #011) was 2.4375 fold, the “Fold increase in expression: insulin-like growth factor binding protein 6 (IGFBP6) gene (M62402)” value ([4]; probe 1736_at, HNSCC #011) was 2.2 fold and the “Fold increase in expression: Human Rad mRNA (L24564)” value ([4]; probe 1776_at, HNSCC #011) was 10.9 fold. For the same compound, the “Fold increase in expression: mRNA for TGF-betaIIR alpha” value ([4]; probe 1814_at, HNSCC #011) was 3.3 fold, the “Fold increase in expression: Human Bc12, p53 binding protein (U58334)” value ([4]; probe 1860_at, HNSCC #011) was 2.3 fold and the “Fold increase in expression: Human R-ras gene (M14949)” value ([4]; probe 1879_at, HNSCC #011) was 3.7 fold. For the same compound, the “Fold increase in expression: Human excision repair protein (ERCC1) mRNA” value ([4]; probe 1902_at, HNSCC #011) was 5.562 fold, the “Fold increase in expression: Human wild-type p53 activated fragment-1 (WAF1) mRNA (U03106)” value ([4]; probe 2031_s_a, HNSCC #011) was 2.9 fold and the “Fold increase in expression: breast cancer putative transcription factor (ZABC1) gene (AF041259)” value ([4]; probe 32034_at, HNSCC #011) was 3.1 fold. The “Fold increase in expression: DR4 homolog; TRAIL receptor 2” value ([4]; probe 34892_at, HNSCC #011) was 2.4292 fold, the “Fold increase in expression: DOC-1 related protein” value ([4]; probe 35151_at, HNSCC #011) was 2.4474 fold and the “Fold increase in expression: Mothers against dpp (Mad) gene (DPC4 gene), U10328” value ([4]; probe 36953_at, HNSCC #011) was 3.5132 fold. The “Fold increase in expression: TGFb inducible early protein and early growth response protein alpha genes (AF050110)” value ([4]; probe 38374_at, HNSCC #011) was 2.3 fold, the “Fold increase in expression: insulin-like growth factor binding protein 4 (IGFBP4) gene (U20982)” value ([4]; probe 39781_at, HNSCC #011) was 3.7 fold and the “Share of all up-regulated genes included in the treatment group” value ([5]; 5 μM 5Aza-dC treatment group, 3 ESCC cell lines) was > 80%. The “STAT3 expression after treatment” value ([5]; after 5Aza-dC treatments) was “did not change”.

From US7781161B2, “Genomic screen for epigenetically silenced tumor suppressor genes” (The Johns Hopkins University School of Medicine, priority 2002, dated 2010)
